Experiments:
[1] = test system: peritoneal mast cells; settings: Theobald et al. 1987; cited from earlier work
[2] = test system: human polymorphonuclear neutrophils; assay: Test 3: leukotriene release from human polymorphonuclear neutrophils induced by calcium ionophore A23187; type: cell-based; settings: for Leukotriene released (ng) B4 / Leukotriene released (ng) C4 / Leukotriene released (ng) 20-COOH / Leukotriene released (ng) 20-OH: A23187 5 μM; for Leukotriene released (ng) B4: saline control 12; for Leukotriene released (ng) C4: saline control 18; for Leukotriene released (ng) 20-COOH: saline control 31; for Leukotriene released (ng) 20-OH: saline control 55; for Leukotriene released (ng) (Total B4): sum of B4, 20-OH and 20-COOH, saline control 98
Protocol: This test was performed to study the activity of the peptide of the present invention to promote the release of leukotriene B4 from human polymorphonuclear neutrophils induced by the calcium ionophore A23187.
Human polymorphonuclear neutrophils were prepared by fractionation of leukocytes from heparinized blood of healthy donors on a Ficoll-metrizoategradient followed by dextran sedimentation. The cells were centrifuged at 300×g, and washed three times with phosphate-buffered saline, after which less than 2% of the platelets remained. Erythrocytes were removed by exposing the cells to hypotonic conditions. The purity of the polymorphonuclear neutrophil fraction used was greater than 97% as confirmed by light microscopy.
For analysis of leukotriene release, human neutrophils suspended in phosphate-buffered saline at approximately 1×10^7 cells per ml were used as the target cells. The cells were incubated for 30 min in the presence of test substance [(purified peptide obtained by the method as in Example 1, or human lactoferrin (Sigma Chemical Co.), or bovine lactoferrin (Morinaga Milk Industry Co.)]. Leukotriene release from the neutrophils was then induced by the addition of calcium ionophore A23187 (Sigma chemical Co.) at a final concentration of 5 μM. After 30 min, the supernatants of the stimulated cells were deproteinized by addition of 2 ml of methanol-acetonitrile (1:1) overlaid with nitrogen and frozen for 12 h at -70° C. After centrifugation at 1000×g for 15 min the supernatant was evaporated to dryness in a freeze dryer, suspended in 0.5 ml of methanol-water (30:70), overlaid with nitrogen, and stored overnight at -70° C. The samples were centrifuged at 1000×g and the supernatant was assayed for the presence of leukotrienes by high pressure liquid chromatography using a reverse-phase column of Nucleosil (C18; 5 μm particles) at a column temperature of 40° C. The solvent system was a mixture of phosphate buffer (17 mM K2 HPO4 containing 0.05% EDTA), acetonitrile, and methanol (50:30:20) adjusted to pH 5.0 with phosphoric acid. The absorbance at 280 nm of the column effluent was monitored and recorded. The concentration of each eluted leukotriene was determined from the peak area by means of a computing integrator. The leukotrienes were identified from their retention times with reference to known standards. The minimum detectable quantity was 1 ng in each instance.

[3] = test system: rat peritoneal mast cells; assay: Test 1: histamine release from rat peritoneal mast cells induced by calcium ionophore A23187; type: cell-based; settings: for Histamine release (Relative %): A23187 5 μM, control (saline) = 100
Protocol: This test was performed to study the activity of the peptide of the present invention to promote the release of histamine from rat peritoneal mast cells induced by the calcium ionophore A23187.
Peritoneal cells were collected from Wistar rats after intraperitoneal injection of phosphate-buffered saline (consisting of 120 mM NaCl, 10 mM Na2 PO4, 3 mM KH2 PO4, pH 7.4). Their abdoments were massaged and the buffer containing the cells was recovered. The cells were centrifuged at 300×g for 15 min and washed twice with phosphate-buffered saline. The cells from several rats were pooled for use in the experiments.
Rat peritoneal cells containing about 1×10^5 mast cells per ml were used as the target cells. A 500 μl volume of the cell suspension was incubated with 100 μl volume of the test substance [purified peptide obtained by the method as in Example 1, or human lactoferrin (Sigma Chemical Co.), or bovine lactoferrin (Morinaga Milk industry Co.)] at 37° C. for 3O min. Thereafter, histamine release from the mast cells was induced by the addition of calcium ionophore A23187 (Sigma Chemical Co.) at a final concentration of 5 μM. After 10 min of incubation the cells were centrifuged at 300×g for 15 min and the supernatant was removed and deproteinized by the addition of 2 ml of HClO4 (2%). The deproteinized sample was then centrifuged at 2000×g for 20 min and the histamine content in the supernatant was determined by the fluorophotometric analyser technique (AutoAnalyzer: Technikon). Cells in the presence of phosphate-buffered saline served as control.

[4] = test system: rat peritoneal mast cells; assay: Test 2: histamine release from rat peritoneal mast cells induced by α-toxin-producing Staphylococcus aureus cells; type: cell-based; settings: for Histamine release (Relative %): S. aureus 121 about 1.0×10^8 cells per ml, control (saline) = 100
Protocol: This test was performed to study the activity of the peptide of the present invention to promote the release of histamine from rat peritoneal mast cells induced by α-toxin-producing Staphylococcus aureus cells.
Staphylococcus aureus 121, an α-toxin-producing strain, was cultured overnight in Brain Heart Infusion broth at 37° C. The bacterial cells were collected by centrifugation at 4000×g for 20 min, washed with phosphate-buffered saline, and suspended in the same buffer for use in the experiment. Rat peritoneal cells were prepared as in Test 1.
The same method as in Test 1 was used, except histamine release from the mast cells was induced by the addition of α-toxin-producing Staphylococcus aureus cells at a final concentration of about 1.0×10^8 cells per ml.

Substance: lactoferrin
- effect on calcium ionophore-induced release of histamine from peritoneal mast cells (in words) [1]: has activity to inhibit calcium ionophore-induced release of histamine

Substance: Phe-Lys-Cys-Arg-Arg-Trp-Gln-Trp-Arg-Met-Lys-Lys-Leu-Gly-Ala-Pro-Ser-Ile-Thr-Cys-Val-Arg-Arg-Ala-Phe (FKCRRWQWRMKKLGAPSITCVRRAF; printed: Phe-Lys-Cys-Arg-Arg-Trp-Gln-Trp-Arg-Met-Lys-Lys-Leu-Gly-Ala-Pro-Ser-Ile-Thr-Cys-Val-Arg-Arg-Ala-Phe) [purified peptide]
- Leukotriene released (ng) B4 ([2]; 1 ppm test substance): 12 ng
- Leukotriene released (ng) C4 ([2]; 1 ppm test substance): 23 ng
- Leukotriene released (ng) 20-COOH ([2]; 1 ppm test substance): 51 ng
- Leukotriene released (ng) 20-OH ([2]; 1 ppm test substance): 70 ng
- Leukotriene released (ng) (Total B4) ([2]; 1 ppm test substance): 133 ng
- activity to promote the release of leukotriene B4 from polymorphonuclear neutrophils (in words) ([2]; 1 to 100 ppm): promotes the release of leukotriene B4
- Leukotriene released (ng) B4 ([2]; 10 ppm test substance): 14 ng
- Leukotriene released (ng) C4 ([2]; 10 ppm test substance): 17 ng
- Leukotriene released (ng) 20-COOH ([2]; 10 ppm test substance): 61 ng
- Leukotriene released (ng) 20-OH ([2]; 10 ppm test substance): 116 ng
- Leukotriene released (ng) (Total B4) ([2]; 10 ppm test substance): 191 ng
- Leukotriene released (ng) B4 ([2]; 100 ppm test substance): 18 ng
- Leukotriene released (ng) C4 ([2]; 100 ppm test substance): 23 ng
- Leukotriene released (ng) 20-COOH ([2]; 100 ppm test substance): 104 ng
- Leukotriene released (ng) 20-OH ([2]; 100 ppm test substance): 162 ng
- Leukotriene released (ng) (Total B4) ([2]; 100 ppm test substance): 284 ng
- Histamine release (Relative %) ([3]; 1 ppm test substance): 135 ± 10 Relative %
- activity to promote the release of histamine from mast cells induced by A23187 (in words) ([3]; 1 to 100 ppm): has activity to promote the release of histamine
- Histamine release (Relative %) ([3]; 10 ppm test substance): 145 ± 15 Relative %
- Histamine release (Relative %) ([3]; 100 ppm test substance): 175 ± 20 Relative %
- Histamine release (Relative %) ([4]; 1 ppm test substance): 200 ± 60 Relative %
- activity to promote the release of histamine from mast cells induced by α-toxin-producing Staphylococcus aureus cells (in words) ([4]; 1 to 100 ppm): has activity to promote the release of histamine
- Histamine release (Relative %) ([4]; 10 ppm test substance): 250 ± 50 Relative %
- Histamine release (Relative %) ([4]; 100 ppm test substance): 460 ± 240 Relative %
